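Briefly, cells in 96-well plates were exposed to five compound concentrations for 48 h, and endpoints were estimated by linear interpolation. At the GI50, growth is halved. TGI denotes the concentration required for complete inhibition of growth.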
Assays:
Experiment in all cases: NCI-60 cell line screen, 48 h
LOX IMVI melanoma = tested on: LOX IMVI melanoma
UACC-257 melanoma = tested on: UACC-257 melanoma
NCI-H23 lung = tested on: NCI-H23 lung
SK-OV-3 ovarian = tested on: SK-OV-3 ovarian
SNB-19 CNS = tested on: SNB-19 CNS
CCRF-CEM leukemia = tested on: CCRF-CEM leukemia
A549 NSCLC = tested on: A549 NSCLC
UO-31 renal = tested on: UO-31 renal
PC-3 prostate = tested on: PC-3 prostate
OVCAR-5 ovarian = tested on: OVCAR-5 ovarian
BT-549 breast = tested on: BT-549 breast
NCI-H226 lung = tested on: NCI-H226 lung
HCC-2998 colon = tested on: HCC-2998 colon
UACC-62 melanoma = tested on: UACC-62 melanoma
MALME-3M melanoma = tested on: MALME-3M melanoma
A498 renal = tested on: A498 renal
K-562 leukemia = tested on: K-562 leukemia
HCT-116 colon = tested on: HCT-116 colon
786-0 renal = tested on: 786-0 renal
OVCAR-3 ovarian = tested on: OVCAR-3 ovarian
DU-145 prostate = tested on: DU-145 prostate
MDA-MB-231 breast = tested on: MDA-MB-231 breast
SK-MEL-2 melanoma = tested on: SK-MEL-2 melanoma
EKVX NSCLC = tested on: EKVX NSCLC
COLO 205 colon = tested on: COLO 205 colon
SNB-75 CNS = tested on: SNB-75 CNS
SR leukemia = tested on: SR leukemia
KM12 colon = tested on: KM12 colon
MDA-MB-435 = tested on: MDA-MB-435
HOP-62 NSCLC = tested on: HOP-62 NSCLC
SF-268 CNS = tested on: SF-268 CNS
SK-MEL-28 melanoma = tested on: SK-MEL-28 melanoma
RXF 393 renal = tested on: RXF 393 renal
M14 melanoma = tested on: M14 melanoma
TK-10 renal = tested on: TK-10 renal
HL-60(TB) leukemia = tested on: HL-60(TB) leukemia
MCF7 breast = tested on: MCF7 breast
ACHN renal = tested on: ACHN renal
SK-MEL-5 melanoma = tested on: SK-MEL-5 melanoma
IGROV1 ovarian = tested on: IGROV1 ovarian
NCI-H522 lung = tested on: NCI-H522 lung
T-47D breast = tested on: T-47D breast
RPMI-8226 leukemia = tested on: RPMI-8226 leukemia
CAKI-1 renal = tested on: CAKI-1 renal
HOP-92 NSCLC = tested on: HOP-92 NSCLC
SF-539 CNS = tested on: SF-539 CNS
NCI-H460 lung = tested on: NCI-H460 lung
SF-295 CNS = tested on: SF-295 CNS
MOLT-4 leukemia = tested on: MOLT-4 leukemia
NCI/ADR-RES ovarian = tested on: NCI/ADR-RES ovarian
SN12C renal = tested on: SN12C renal
OVCAR-8 ovarian = tested on: OVCAR-8 ovarian
SW-620 colon = tested on: SW-620 colon
U251 CNS = tested on: U251 CNS
HCT-15 colon = tested on: HCT-15 colon
HS 578T breast = tested on: HS 578T breast
OVCAR-4 ovarian = tested on: OVCAR-4 ovarian
HT29 colon = tested on: HT29 colon

## Nc1ccc(/C=C/c2ccc3ncccc3c2)cc1
LOX IMVI melanoma
  GI50: 75 µM
  TGI: > 100 µM
UACC-257 melanoma
  GI50: > 100 µM
  TGI: > 100 µM
NCI-H23 lung
  GI50: > 100 µM
  TGI: > 100 µM
SK-OV-3 ovarian
  GI50: > 100 µM
  TGI: > 100 µM
SNB-19 CNS
  GI50: > 100 µM
  TGI: > 100 µM
CCRF-CEM leukemia
  GI50: 0.821 µM
  TGI: > 100 µM
A549 NSCLC
  GI50: > 100 µM
  TGI: > 100 µM
UO-31 renal
  GI50: 2.32 µM
  TGI: > 100 µM
PC-3 prostate
  GI50: 7.29 µM
  TGI: > 100 µM
OVCAR-5 ovarian
  GI50: > 100 µM
  TGI: > 100 µM
BT-549 breast
  GI50: 5.29 µM
  TGI: > 100 µM
NCI-H226 lung
  GI50: > 100 µM
  TGI: > 100 µM
HCC-2998 colon
  GI50: > 100 µM
  TGI: > 100 µM
UACC-62 melanoma
  GI50: > 100 µM
  TGI: > 100 µM
MALME-3M melanoma
  GI50: > 100 µM
  TGI: > 100 µM
A498 renal
  GI50: > 100 µM
  TGI: > 100 µM
K-562 leukemia
  GI50: > 100 µM
  TGI: > 100 µM
HCT-116 colon
  GI50: > 100 µM
  TGI: > 100 µM
786-0 renal
  GI50: > 100 µM
  TGI: > 100 µM
OVCAR-3 ovarian
  GI50: > 100 µM
  TGI: > 100 µM
DU-145 prostate
  GI50: > 100 µM
  TGI: > 100 µM
MDA-MB-231 breast
  GI50: 2.09 µM
  TGI: > 100 µM
SK-MEL-2 melanoma
  GI50: > 100 µM
  TGI: > 100 µM
EKVX NSCLC
  GI50: 31.7 µM
  TGI: > 100 µM
COLO 205 colon
  GI50: > 100 µM
  TGI: > 100 µM
SNB-75 CNS
  GI50: 37.1 µM
  TGI: > 100 µM
SR leukemia
  GI50: > 100 µM
  TGI: > 100 µM
KM12 colon
  GI50: 49.1 µM
  TGI: > 100 µM
MDA-MB-435
  GI50: > 100 µM
  TGI: > 100 µM
HOP-62 NSCLC
  GI50: > 100 µM
  TGI: > 100 µM
SF-268 CNS
  GI50: > 100 µM
  TGI: > 100 µM
SK-MEL-28 melanoma
  GI50: > 100 µM
  TGI: > 100 µM
RXF 393 renal
  GI50: 73.2 µM
  TGI: > 100 µM
M14 melanoma
  GI50: > 100 µM
  TGI: > 100 µM
TK-10 renal
  GI50: 86.5 µM
  TGI: > 100 µM
HL-60(TB) leukemia
  GI50: 1.52 µM
  TGI: > 100 µM
MCF7 breast
  GI50: > 100 µM
  TGI: > 100 µM
ACHN renal
  GI50: > 100 µM
  TGI: > 100 µM
SK-MEL-5 melanoma
  GI50: > 100 µM
  TGI: > 100 µM
IGROV1 ovarian
  GI50: > 100 µM
  TGI: > 100 µM
NCI-H522 lung
  GI50: 19.9 µM
  TGI: > 100 µM
T-47D breast
  GI50: > 100 µM
  TGI: > 100 µM
RPMI-8226 leukemia
  GI50: 6.89 µM
  TGI: > 100 µM
CAKI-1 renal
  TGI: > 100 µM
HOP-92 NSCLC
  GI50: 12.9 µM
  TGI: > 100 µM
SF-539 CNS
  GI50: > 100 µM
  TGI: > 100 µM
NCI-H460 lung
  GI50: > 100 µM
  TGI: > 100 µM
SF-295 CNS
  GI50: 70.3 µM
  TGI: > 100 µM
MOLT-4 leukemia
  GI50: > 100 µM
  TGI: > 100 µM
NCI/ADR-RES ovarian
  GI50: > 100 µM
  TGI: > 100 µM
SN12C renal
  GI50: > 100 µM
  TGI: > 100 µM
OVCAR-8 ovarian
  GI50: > 100 µM
  TGI: > 100 µM
SW-620 colon
  GI50: > 100 µM
  TGI: > 100 µM
U251 CNS
  GI50: > 100 µM
  TGI: > 100 µM
HCT-15 colon
  GI50: > 100 µM
  TGI: > 100 µM
HS 578T breast
  GI50: > 100 µM
  TGI: > 100 µM
OVCAR-4 ovarian
  GI50: > 100 µM
  TGI: > 100 µM
HT29 colon
  GI50: > 100 µM
  TGI: > 100 µM
